From PMC10650756, “Synthesis and In Vivo Antiarrhythmic Activity Evaluation of Novel Scutellarein Analogues as Voltage-Gated Nav1.5 and Cav1.2 Channels Blockers” (Molecules, 2023)

Legend:
Format in all cases: cell-based
Cav1.2 [1] = molecular target: T1, Cav1.2 (Homo sapiens, UniProt Q13936); test: whole-cell patch clamp of ICa in transfected HEK293 cells, VH -80 mV; IC50 undefined (solubility); settings: read-out: % reduction of ICa amplitude at 30 μM
T1 construct: gene CACNA1C; human Cav1.2 expressed in HEK293 cells (plasmid printed as pCDNA3.1hCACNA2D)
T1 sequence (Q13936 whole entry): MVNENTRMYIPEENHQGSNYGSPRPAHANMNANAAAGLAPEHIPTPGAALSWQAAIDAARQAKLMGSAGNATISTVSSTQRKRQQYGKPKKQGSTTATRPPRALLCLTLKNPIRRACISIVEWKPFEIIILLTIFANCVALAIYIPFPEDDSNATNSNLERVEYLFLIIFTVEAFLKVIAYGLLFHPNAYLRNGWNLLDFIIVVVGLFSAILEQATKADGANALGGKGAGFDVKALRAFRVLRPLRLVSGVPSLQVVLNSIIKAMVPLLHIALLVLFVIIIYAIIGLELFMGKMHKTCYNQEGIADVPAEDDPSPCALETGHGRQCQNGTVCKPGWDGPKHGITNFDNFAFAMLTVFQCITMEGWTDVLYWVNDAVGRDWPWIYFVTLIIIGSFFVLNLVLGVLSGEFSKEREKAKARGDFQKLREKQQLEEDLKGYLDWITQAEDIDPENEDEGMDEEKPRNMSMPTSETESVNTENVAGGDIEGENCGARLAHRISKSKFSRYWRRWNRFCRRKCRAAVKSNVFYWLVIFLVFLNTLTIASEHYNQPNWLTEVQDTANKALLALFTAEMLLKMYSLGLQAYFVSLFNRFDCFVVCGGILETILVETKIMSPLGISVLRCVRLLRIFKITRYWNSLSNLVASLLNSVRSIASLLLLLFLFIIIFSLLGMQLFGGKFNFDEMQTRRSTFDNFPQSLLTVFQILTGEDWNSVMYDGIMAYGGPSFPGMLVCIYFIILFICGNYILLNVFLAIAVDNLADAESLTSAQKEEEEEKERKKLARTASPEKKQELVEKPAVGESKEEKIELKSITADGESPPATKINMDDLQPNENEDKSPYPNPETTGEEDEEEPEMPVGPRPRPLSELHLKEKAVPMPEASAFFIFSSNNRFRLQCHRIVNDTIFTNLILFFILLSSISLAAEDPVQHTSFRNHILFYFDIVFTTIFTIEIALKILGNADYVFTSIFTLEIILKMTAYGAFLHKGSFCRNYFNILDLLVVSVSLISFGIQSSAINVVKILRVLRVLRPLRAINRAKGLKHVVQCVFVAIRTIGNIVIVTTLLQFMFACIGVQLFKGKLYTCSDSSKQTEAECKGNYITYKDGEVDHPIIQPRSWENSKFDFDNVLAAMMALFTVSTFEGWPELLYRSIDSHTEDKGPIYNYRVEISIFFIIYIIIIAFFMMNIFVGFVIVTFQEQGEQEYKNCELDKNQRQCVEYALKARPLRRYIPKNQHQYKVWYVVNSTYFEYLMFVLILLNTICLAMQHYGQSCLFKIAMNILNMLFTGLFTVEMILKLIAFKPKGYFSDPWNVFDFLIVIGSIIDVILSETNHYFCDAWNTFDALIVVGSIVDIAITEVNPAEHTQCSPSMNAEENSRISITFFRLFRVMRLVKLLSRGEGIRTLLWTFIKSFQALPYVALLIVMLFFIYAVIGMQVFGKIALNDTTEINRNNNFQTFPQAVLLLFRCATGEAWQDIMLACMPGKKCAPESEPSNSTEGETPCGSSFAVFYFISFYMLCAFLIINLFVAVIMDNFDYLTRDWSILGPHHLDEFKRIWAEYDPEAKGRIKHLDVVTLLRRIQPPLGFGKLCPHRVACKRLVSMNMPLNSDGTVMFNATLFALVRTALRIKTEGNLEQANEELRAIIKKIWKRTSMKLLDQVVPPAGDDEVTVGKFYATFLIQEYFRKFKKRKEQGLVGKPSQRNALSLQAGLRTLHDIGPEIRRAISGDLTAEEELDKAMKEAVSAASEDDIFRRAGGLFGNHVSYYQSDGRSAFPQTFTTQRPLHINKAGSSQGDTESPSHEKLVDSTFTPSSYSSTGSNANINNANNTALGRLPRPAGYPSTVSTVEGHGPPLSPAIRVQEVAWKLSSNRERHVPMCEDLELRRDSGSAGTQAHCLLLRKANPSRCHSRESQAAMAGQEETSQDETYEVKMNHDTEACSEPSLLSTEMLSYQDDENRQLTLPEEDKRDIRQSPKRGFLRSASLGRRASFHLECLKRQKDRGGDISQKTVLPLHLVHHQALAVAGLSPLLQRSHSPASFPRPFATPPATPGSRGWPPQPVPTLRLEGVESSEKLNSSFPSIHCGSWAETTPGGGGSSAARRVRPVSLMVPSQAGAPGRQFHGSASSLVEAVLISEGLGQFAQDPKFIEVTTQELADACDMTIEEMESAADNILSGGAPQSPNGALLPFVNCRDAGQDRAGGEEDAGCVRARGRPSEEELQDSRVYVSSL

Nav1.5 = molecular target: T2, Nav1.5 (Homo sapiens, UniProt Q14524); test: whole-cell patch clamp in transfected HEK293 cells; steady-state inactivation left-shifted at […], no change in current density or activation
T2 construct: gene SCN5A; human Nav1.5 (pCDNA3.1hSCN5A) expressed in HEK293 cells
T2 sequence (Q14524 whole entry): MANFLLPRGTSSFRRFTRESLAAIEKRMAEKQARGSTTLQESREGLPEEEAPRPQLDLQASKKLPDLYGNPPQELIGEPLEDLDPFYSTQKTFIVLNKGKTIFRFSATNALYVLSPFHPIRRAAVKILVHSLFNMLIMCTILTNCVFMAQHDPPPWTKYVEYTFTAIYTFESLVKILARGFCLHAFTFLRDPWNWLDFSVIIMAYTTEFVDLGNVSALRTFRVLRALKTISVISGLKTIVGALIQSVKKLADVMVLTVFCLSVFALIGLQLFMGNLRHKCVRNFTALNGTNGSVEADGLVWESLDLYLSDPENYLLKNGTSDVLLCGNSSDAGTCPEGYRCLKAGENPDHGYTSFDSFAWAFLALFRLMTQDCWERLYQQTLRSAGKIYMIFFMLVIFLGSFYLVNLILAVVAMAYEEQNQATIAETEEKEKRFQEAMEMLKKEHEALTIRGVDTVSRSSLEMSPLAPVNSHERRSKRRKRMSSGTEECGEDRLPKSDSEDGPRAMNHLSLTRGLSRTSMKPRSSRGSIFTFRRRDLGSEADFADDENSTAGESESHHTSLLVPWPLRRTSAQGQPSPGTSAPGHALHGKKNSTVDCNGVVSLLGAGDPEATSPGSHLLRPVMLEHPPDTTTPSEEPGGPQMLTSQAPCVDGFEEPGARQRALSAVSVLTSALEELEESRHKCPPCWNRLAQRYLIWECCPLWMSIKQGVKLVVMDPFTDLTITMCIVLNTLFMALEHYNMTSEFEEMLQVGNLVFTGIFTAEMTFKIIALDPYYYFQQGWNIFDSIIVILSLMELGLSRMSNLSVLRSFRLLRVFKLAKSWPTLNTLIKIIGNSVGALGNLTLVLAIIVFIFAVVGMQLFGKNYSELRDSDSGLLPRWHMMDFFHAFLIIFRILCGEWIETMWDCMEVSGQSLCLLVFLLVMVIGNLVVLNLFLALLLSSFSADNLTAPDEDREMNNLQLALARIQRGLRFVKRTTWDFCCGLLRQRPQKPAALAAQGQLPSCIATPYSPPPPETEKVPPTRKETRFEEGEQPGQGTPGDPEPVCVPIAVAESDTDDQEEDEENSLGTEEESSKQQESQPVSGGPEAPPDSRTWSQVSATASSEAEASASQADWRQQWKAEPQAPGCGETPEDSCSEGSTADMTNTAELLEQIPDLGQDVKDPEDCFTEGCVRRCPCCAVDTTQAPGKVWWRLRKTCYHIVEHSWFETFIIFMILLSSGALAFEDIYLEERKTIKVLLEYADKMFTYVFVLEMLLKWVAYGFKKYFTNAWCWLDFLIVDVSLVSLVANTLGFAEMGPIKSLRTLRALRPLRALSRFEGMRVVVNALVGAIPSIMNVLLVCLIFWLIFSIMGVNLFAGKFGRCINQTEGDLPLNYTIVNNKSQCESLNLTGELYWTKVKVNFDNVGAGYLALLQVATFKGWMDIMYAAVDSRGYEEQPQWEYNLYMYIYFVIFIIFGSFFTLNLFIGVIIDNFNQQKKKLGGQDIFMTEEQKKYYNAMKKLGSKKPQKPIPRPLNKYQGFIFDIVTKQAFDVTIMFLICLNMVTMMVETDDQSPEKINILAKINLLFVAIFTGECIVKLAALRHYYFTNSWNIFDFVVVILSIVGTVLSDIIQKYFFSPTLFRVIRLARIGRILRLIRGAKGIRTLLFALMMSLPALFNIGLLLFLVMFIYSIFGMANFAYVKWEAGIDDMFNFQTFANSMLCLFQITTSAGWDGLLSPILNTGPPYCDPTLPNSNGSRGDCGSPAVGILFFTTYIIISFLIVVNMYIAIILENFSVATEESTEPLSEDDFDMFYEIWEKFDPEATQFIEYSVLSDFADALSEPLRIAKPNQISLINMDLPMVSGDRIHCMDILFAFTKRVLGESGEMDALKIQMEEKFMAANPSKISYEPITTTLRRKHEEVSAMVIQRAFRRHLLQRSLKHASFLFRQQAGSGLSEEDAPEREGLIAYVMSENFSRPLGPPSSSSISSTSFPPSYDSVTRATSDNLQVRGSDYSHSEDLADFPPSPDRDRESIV

Cav1.2 [2] = molecular target: T1, Cav1.2; test: whole-cell patch clamp of ICa in transfected HEK293 cells, VH -80 mV; settings: read-out: % reduction of ICa amplitude at 1 μM

## CC(=O)Oc1ccc(-c2cc(=O)c3c(O)c4c(cc3o2)OC(c2ccccc2)(c2ccccc2)O4)cc1 [10e, 4-(9-Hydroxy-8-oxo-2,2-diphenyl-8H-[1,3]dioxolo[4,5-g]chromen-6-yl)phenyl acetate]
Cav1.2 [1]
  inhibition at 30 µM: ~32.6%
Nav1.5
  whole-cell patch clamp in transfected HEK293 cells; steady-state inactivation le: −94.1 ± 1.7 mV (inactivation V1/2 at 30 μM; control −84.4 ± 0.6 mV)

## COC(=O)C1=C(C)NC(C)=C(C(=O)OC)C1c1ccccc1[N+](=O)[O-] [Nifedipine]
Cav1.2 [2]
  inhibition at 1 µM: ~97.9%
